The values that follow are results of earlier work, collected in patent US20060189608A1, “Methods for treating ocular angiogenesis, retinal edema, retinal ischemia, and diabetic retinopathy using selective RTK inhibitors” (Alcon, Inc., priority 2005, published 2006).

The structures appear in SMILES notation.

The test system of data set [1] is preretinal and choroidal NV. Conditions: oral administration, mice; cited from earlier work.
Data set [2] has as its system diabetic macular edema. Particulars: human patients with diabetic macular edema, cited from earlier work.

Regarding `CO[C@@H]1[C@H](N(C)C(=O)c2ccccc2)C[C@H]2O[C@]1(C)n1c3ccccc3c3c4c(c5c6ccccc6n2c5c31)C(=O)NC4` [PKC-412], the “effect on preretinal and choroidal NV” value in data set [1] was “inhibited both preretinal and choroidal NV in mice”. Besides, in data set [2] (pilot results), the “macular edema and visual acuity” value is “a reduction in macular edema and an improvement in visual acuity”. In data set [2], the “liver toxicity” value is “concerns related to liver toxicity halted the clinical trials”.
